The text below walks through data of US11452725B2, “Chiral diaryl macrocycles and uses thereof” (TURNING POINT THERAPEUTICS, INC., priority 2015, dated 2022).

In one assay the test system is paxillin. In words: Immunoblotting SRC substrate phosphorylation, NCI-H2228 cells. It counts as cell-based. Particulars: Homo sapiens; NCI-H2228 cell line. As for the experimental part:
NSCLC cell line H2228 (harboring endogenous EML4-ALK fusion gene) was cultured in RPMI medium supplemented with 10% fetal bovine serum and 100 U/mL of penicillin/streptomycin. Ba/F3 and NIH3T3 cells stably expressing ROS1, or TRKA, or TRKB, or TRKC (WT or mutant) were cultured as mentioned above. […] Cells were collected after treatment and lysed in RIPA buffer (50 mM Tris, pH 7.4, 150 mM NaCl, 1% NP-40, 0.5% Deoxycholate, 0.1% SDS) supplemented with 10 mM EDTA, 1× Halt protease and phosphatase inhibitors (Thermo Scientific). Protein lysates (approximately 20 μg) was resolved on 4-12% Bolt Bis-Tris precasted gels with MES running buffer (Life Technologies), transferred to nitrocellulose membranes using Trans-Blot Turbo Transfer System (Bio-Rad) and detected with antibodies targeting phosphorylated phosphorylated ROS1 and total ROS1 (Cell Signaling Technology), phosphorylated TRK A/B (Cell Signaling Technology), total TRKA antibody (Santa Cruz Biotechnology), phosphorylated SRC Y416 (Cell Signaling Technology), total SRC (Cell Signaling Technology), phosphorylated FAK Y576/577 (Cell Signaling Technology), total FAK (Cell Signaling Technology), phosphorylated paxillin Y118 (Cell Signaling Technology), total paxillin (Cell Signaling Technology), phosphorylated EGFR and total EGFR, CD44, and Tubulin (Sigma). […]

Assay [1] has as its system Ba/F3 CD74-ROS1 G2032R tumors. In words: Ba/F3 CD74-ROS1 G2032R subcutaneous xenograft model. The assay is classed as in vivo, SCID/Beige mice. The note with it: 11 days.
Procedure: Female athymic nude mice and SCID/Beige mice (5-8 weeks of age) were obtained from Charles River Laboratory and were housed in Innovive IVC disposable cages on HEPA filtered ventilated racks with ad libitum access to rodent chow and water. Five million cells in 100 μL serum-free medium were implanted subcutaneously in the right flank region of the mouse. […] All models were implanted with 50% matrigel (Corning, Inc) in the medium. Tumor size and body weight were measured on designated days. Tumor size was measured with an electronic caliper and tumor volume was calculated as the product of length*width^2*0.5.
In a further assay the target is T1, PYK2 (Homo sapiens, UniProt Q14289).
T1 construct: purchased Reaction Biology Corporation (contract assay)
In words: Biochemical kinase assay (Reaction Biology). The note with it: 10 μM ATP.

The target of the next assay is T2, PLK4 (Homo sapiens, UniProt O00444).
T2 construct: purchased Reaction Biology Corporation (contract assay)
In words: Biochemical kinase assay (Reaction Biology). Particulars: 10 μM ATP.

Another assay addresses T3, EPHA8 (Homo sapiens, UniProt P29322).
T3 construct: purchased Reaction Biology Corporation (contract assay)
Nature of the assay: Biochemical kinase assay (Reaction Biology). Particulars: 10 μM ATP.

Assay [2] deals with NIH3T3 SDC4-ROS1 WT tumors. In words: NIH3T3 SDC4-ROS1 WT subcutaneous xenograft model. Particulars: 26 days. The assay is classed as in vivo, athymic nude mice. How it is done: Female athymic nude mice and SCID/Beige mice (5-8 weeks of age) were obtained from Charles River Laboratory and were housed in Innovive IVC disposable cages on HEPA filtered ventilated racks with ad libitum access to rodent chow and water. Five million cells in 100 μL, serum-free medium were implanted subcutaneously in the right flank region of the mouse. Karpas299 cells were implanted into the SCID/Beige mice. KM12 cells, NIH3T3 EML4-ALK wild type mutant cells, and NIH3T3 SCD4-ROS1 wild type mutant cells were implanted into the athymic nude mice, respectively. All models except KM12 were implanted with 50% matrigel (Corning, Inc) in the medium. Tumor size and body weight were measured on designated days. Tumor size was measured with an electronic caliper and tumor volume was calculated as the product of length*width^2*0.5.
The SDC4-ROS1 fusion gene is considered as the driver for tumor progression in NSCLC. […] The control group of mice were given vehicle only. Tumor volume was measured by caliper on the indicated days and is shown at mean±sem in FIG. 9.

The target of the next assay is T4, LCK (Homo sapiens, UniProt P06239).
T4 construct: purchased Reaction Biology Corporation (contract assay)
In words: Biochemical kinase assay (Reaction Biology). Particulars: 10 μM ATP.

The next assay addresses T5, SNARK (Homo sapiens, UniProt Q9H093).
T5 construct: purchased Reaction Biology Corporation
In words: Biochemical kinase assay (Reaction Biology). The note with it: 10 μM ATP.

In another assay the test system is STAT3. In words: Immunoblotting downstream signaling, Karpas-299 cells. The assay is classed as cell-based. Particulars: Homo sapiens, read-out: downstream STAT3 phosphorylation IC50. How it is done: (§1) NSCLC cell line H2228 (harboring endogenous EML4-ALK fusion gene), HCC78 cells (harboring endogenous SLC34A2-ROS1 fusion gene), Karpas-299 cells (harboring endogenous NPM-ALK fusion gene) or SET-2 (harboring endogenous JAK2V617F activating mutation) were cultured in RPMI medium, and KM12 (harboring endogenous TPM3-TRKA fusion gene) cell line was cultured in DMEM medium, both supplemented with 10% fetal bovine serum and 100 U/mL of penicillin/streptomycin. Ba/F3 and NIH3T3 cells stably expressing ALK or ROS1 (WT or mutant) were culture as mentioned above. […] Protein lysates (approximately 20 μg) was resolved on 4-12% Bolt Bis-Tris precasted gels with MES running buffer (Life Technologies), transferred to nitrocellulose membranes using Trans-Blot Turbo Transfer System (Bio-Rad) and detected with antibodies targeting phosphorylated ALK Y1604 (Cell Signaling Technology), total ALK (Cell Signaling Technology), phosphorylated ROS1 and total ROS1 (Cell Signaling Technology), phosphorylated TRK A/B (Cell Signaling Technology), total TRKA antibody (Santa Cruz Biotechnology), phosphorylated STAT3 and STAT5, total STAT3 and STAT5 (Cell Signaling Technology), phosphorylated AKT (Cell Signaling Technology), total AKT (Cell Signaling Technology), phosphorylated ERK (Cell Signaling Technology), total ERK (Cell Signaling Technology) and Tubulin (Sigma). […]
(In western blotting, separated proteins are transferred to a membrane and probed.)

In the next assay the test system is AKT. The description is as above. Particulars: Homo sapiens, read-out: downstream AKT phosphorylation IC50. It counts as cell-based. How it is done:
as §1

In assay [3] the test system is Ba/F3 EML4-ALK F1174C cell line. In words: Cell proliferation assay (CellTiter-Glo). It counts as cell-based. The note with it: Mus musculus, 72 hours. A general note: In ATP-based viability assays light output follows the ATP content of the culture.

T1 sequence (Q14289 whole entry): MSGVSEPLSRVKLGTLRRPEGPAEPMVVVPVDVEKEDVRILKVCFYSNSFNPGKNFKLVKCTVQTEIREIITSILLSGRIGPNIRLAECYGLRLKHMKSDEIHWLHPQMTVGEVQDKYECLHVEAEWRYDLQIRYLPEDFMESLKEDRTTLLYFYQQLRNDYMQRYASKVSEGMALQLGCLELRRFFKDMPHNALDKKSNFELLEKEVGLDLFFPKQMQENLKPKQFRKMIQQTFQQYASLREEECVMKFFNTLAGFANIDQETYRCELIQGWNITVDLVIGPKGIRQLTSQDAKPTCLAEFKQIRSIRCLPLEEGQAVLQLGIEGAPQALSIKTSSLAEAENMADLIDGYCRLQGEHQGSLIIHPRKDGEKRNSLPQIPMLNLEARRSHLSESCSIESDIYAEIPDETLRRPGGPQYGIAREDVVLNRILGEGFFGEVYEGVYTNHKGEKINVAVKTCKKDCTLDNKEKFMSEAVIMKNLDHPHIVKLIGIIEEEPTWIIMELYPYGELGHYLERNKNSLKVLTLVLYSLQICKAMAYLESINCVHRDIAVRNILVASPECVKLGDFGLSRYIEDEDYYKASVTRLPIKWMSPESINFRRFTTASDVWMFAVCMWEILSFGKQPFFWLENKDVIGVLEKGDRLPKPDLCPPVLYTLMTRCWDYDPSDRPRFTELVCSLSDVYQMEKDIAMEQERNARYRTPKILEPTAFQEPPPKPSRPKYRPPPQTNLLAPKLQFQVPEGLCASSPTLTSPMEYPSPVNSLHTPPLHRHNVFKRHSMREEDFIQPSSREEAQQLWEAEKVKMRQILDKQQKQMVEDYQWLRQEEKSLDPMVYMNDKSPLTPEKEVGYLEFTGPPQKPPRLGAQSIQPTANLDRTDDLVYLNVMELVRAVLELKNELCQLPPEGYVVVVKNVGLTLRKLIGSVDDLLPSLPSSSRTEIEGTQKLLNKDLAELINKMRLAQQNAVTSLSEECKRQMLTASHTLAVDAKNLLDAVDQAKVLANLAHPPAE
T3 sequence (P29322 28-1005): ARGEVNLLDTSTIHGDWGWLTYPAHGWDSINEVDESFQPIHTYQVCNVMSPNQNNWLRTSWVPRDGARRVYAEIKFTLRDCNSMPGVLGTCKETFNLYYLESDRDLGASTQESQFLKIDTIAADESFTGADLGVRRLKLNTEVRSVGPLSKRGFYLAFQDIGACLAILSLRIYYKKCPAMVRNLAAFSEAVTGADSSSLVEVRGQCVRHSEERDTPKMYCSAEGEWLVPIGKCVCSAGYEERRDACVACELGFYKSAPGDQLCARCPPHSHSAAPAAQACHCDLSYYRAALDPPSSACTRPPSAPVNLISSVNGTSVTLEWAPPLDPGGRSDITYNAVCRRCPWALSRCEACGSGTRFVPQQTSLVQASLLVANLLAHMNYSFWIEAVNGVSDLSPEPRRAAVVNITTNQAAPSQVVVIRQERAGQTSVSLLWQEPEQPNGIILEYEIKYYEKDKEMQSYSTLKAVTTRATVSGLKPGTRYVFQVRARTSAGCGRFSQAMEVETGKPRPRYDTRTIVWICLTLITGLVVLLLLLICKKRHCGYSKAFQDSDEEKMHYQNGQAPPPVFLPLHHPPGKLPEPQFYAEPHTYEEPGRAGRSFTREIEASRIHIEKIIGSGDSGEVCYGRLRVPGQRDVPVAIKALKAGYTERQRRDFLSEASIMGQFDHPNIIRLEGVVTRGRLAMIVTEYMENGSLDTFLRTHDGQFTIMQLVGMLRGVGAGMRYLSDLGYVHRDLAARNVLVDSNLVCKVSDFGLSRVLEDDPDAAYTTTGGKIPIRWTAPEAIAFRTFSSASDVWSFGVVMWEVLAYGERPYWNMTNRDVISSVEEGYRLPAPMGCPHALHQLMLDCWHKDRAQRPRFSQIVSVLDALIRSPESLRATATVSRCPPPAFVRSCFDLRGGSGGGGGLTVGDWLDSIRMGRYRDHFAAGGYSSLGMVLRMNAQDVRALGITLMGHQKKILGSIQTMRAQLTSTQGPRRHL
T5 sequence (Q9H093 whole entry): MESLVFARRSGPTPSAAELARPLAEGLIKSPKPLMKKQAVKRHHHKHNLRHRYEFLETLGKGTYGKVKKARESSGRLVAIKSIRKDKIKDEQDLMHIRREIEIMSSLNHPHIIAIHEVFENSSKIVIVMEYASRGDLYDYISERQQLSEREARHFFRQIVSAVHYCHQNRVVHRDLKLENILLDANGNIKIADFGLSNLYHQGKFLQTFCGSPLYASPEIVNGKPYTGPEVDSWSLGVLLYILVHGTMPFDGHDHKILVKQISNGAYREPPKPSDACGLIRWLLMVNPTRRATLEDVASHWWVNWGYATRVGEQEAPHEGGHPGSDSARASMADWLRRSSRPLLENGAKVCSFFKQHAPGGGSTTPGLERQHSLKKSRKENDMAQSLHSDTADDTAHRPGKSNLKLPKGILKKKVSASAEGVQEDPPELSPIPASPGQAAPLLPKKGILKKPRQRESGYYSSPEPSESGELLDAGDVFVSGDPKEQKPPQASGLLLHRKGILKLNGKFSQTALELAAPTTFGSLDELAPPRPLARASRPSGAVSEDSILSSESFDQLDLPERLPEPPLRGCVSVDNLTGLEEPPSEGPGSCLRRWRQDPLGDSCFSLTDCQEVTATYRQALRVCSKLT
T4 sequence (P06239 whole entry): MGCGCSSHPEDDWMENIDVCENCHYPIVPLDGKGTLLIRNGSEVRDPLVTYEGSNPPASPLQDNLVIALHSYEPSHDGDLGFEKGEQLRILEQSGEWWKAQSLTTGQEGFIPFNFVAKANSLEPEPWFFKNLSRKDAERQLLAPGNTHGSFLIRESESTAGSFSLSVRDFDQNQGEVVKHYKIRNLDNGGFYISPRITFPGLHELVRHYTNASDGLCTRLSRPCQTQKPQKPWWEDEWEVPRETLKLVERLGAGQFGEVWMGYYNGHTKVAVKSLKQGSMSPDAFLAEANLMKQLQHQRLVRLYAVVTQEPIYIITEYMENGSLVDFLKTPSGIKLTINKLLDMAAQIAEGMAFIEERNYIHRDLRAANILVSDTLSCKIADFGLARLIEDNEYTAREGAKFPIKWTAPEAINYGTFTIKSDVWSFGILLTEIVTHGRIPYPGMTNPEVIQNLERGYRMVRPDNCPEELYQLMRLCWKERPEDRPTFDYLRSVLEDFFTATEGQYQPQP
T2 sequence (O00444 whole entry): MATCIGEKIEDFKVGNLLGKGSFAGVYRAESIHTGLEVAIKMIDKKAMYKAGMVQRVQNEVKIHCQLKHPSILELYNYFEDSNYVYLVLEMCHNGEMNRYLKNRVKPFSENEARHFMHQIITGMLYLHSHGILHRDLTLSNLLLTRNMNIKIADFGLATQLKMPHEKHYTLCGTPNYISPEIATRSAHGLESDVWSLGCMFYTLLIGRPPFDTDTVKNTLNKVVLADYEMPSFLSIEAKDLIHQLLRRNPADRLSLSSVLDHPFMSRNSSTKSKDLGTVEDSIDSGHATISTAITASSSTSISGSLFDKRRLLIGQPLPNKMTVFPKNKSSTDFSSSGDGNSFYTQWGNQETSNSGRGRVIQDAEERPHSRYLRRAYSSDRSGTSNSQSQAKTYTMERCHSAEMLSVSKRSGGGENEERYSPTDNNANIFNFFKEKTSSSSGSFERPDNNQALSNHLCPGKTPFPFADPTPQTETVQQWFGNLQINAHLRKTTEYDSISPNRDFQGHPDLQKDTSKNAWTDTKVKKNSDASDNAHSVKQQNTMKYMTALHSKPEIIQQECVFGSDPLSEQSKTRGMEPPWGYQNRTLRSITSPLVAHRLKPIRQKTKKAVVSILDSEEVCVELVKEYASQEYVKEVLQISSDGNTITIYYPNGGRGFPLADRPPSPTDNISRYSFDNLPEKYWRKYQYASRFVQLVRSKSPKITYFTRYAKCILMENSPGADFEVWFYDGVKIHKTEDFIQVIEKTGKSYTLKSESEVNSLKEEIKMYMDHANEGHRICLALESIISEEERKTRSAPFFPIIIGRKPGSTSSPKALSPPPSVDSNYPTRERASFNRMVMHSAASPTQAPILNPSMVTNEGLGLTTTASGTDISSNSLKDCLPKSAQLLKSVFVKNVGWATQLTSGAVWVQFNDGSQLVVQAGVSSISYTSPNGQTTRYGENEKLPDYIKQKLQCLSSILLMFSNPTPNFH
Procedure for EPHA8: (§2) Specific kinase/substrate pairs along with required cofactors were prepared in reaction buffer; 20 mM Hepes pH 7.5, 10 mM MgCl2, 1 mM EGTA, 0.02% Brij35, 0.02 mg/ml BSA, 0.1 mM Na3VO4, 2 mM DTT, 1% DMSO (for specific details of individual kinase reaction components see Supplementary Table 2). Compounds were delivered into the reaction, followed ˜20 minutes later by addition of a mixture of ATP (Sigma, St. Louis Mo.) and ^33P ATP (Perkin Elmer, Waltham Mass.) to a final concentration of 10 μM. Reactions were carried out at room temperature for 120 min, followed by spotting of the reactions onto P81 ion exchange filter paper (Whatman Inc., Piscataway, N.J.). […] IC50 values and curve fits were obtained using Prism (GraphPad Software).
Procedure for LCK: as §2
Procedure for PLK4: as §2
Procedure for PYK2: as §2
Procedure for SNARK: as §2

For `C[C@H]1CNC(=O)c2cnn3ccc(nc23)N[C@H](C)c2cc(F)ccc2O1` [Compound 1, (7S,13R)-11-fluoro-7,13-dimethyl-6,7,13,14-tetrahydro-1,15-ethenopyrazolo[4,3-f][1,4,8,10]benzoxatriazacyclotridecin-4(5H)-one], the IC50 – broadly, the concentration at which inhibition is half-maximal – is about 0.103 µM in the assay with paxillin; 0.0399 µM on PYK2; 0.126 µM against PLK4; 0.0502 µM on EPHA8; 0.0186 µM on LCK; 0.013 µM against SNARK. The results for the IC50 (with STAT3; with AKT; in assay [3]) were 0.001 to 0.003 µM, 0.001 to 0.003 µM and 0.054 µM, respectively. In addition, the “mice exhibiting tumor regression” value in assay [1] (15 mg/kg/BID orally) is on record as 2 of 8; in [2] (15 mg/kg BID orally), 7 of 8; in assay [2] (50 mg/kg BID orally), 7 of 7. In addition, in [1] (75 mg/kg BID orally), the “mice exhibiting complete tumor regression” value was 8 of 8. The results for the “tumor regression (REG)” value in [1] (75 mg/kg BID orally), in [2] (15 mg/kg BID orally) and in assay [2] (50 mg/kg BID orally) were 100%, 39% and 69%, respectively.
